Test results from ChEMBL document CHEMBL1147770, “Design, synthesis and structure-activity relationships of new phosphinate inhibitors of MurD” (Bioorg Med Chem Lett, 2006).

Each compound was assayed against T1, UDP-N-acetylmuramoylalanine--D-glutamate ligase (Escherichia coli K-12) (UniProt P14900) (assay: Residual activity of MurD from Escherichia coli at 1 mM).
T1 sequence (whole entry): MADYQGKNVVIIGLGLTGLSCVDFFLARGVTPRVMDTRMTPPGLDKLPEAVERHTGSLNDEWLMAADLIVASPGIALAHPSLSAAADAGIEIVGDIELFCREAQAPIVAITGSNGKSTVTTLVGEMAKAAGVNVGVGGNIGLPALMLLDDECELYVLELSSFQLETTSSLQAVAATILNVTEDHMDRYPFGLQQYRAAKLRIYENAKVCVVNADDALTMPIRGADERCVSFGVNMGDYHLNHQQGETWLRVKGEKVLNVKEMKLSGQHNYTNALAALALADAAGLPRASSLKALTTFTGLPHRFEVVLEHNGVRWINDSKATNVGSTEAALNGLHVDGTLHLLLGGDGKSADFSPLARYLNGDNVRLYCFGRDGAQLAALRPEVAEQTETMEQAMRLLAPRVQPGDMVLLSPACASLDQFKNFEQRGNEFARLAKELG
CC(C)CC(NC(=O)OCc1ccccc1)P(=O)(O)CC(CCC(=O)O)C(=O)O (configuration not stated) was tested, and the Activity was 65%. In the case of CC(NS(=O)(=O)c1ccccc1)P(=O)(O)CC(CCC(=O)O)C(=O)O (configuration not stated), the Activity is reported as 54%. CC(NC(=O)OCc1ccccc1)P(=O)(O)CC(CCC(=O)O)C(=O)O (configuration not stated) gave an Activity of 41%. CC(NS(=O)(=O)Cc1cccc([N+](=O)[O-])c1)P(=O)(O)CC(CCC(=O)O)C(=O)O (configuration not stated) showed an Activity of 22%. In the case of CC(NC(=O)OCc1ccccc1)P(=O)(O)CCC(=O)O (configuration not stated), the Activity is reported as 92%. In the case of CC(NC(=O)[C@@H](C)NS(=O)(=O)Cc1ccc([N+](=O)[O-])cc1)P(=O)(O)CC(CCC(=O)O)C(=O)O (some centres not stated), the Activity is reported as 8%. Work on CC(NC(=O)Cc1ccc2c(c1)OCO2)P(=O)(O)CC(CCC(=O)O)C(=O)O (configuration not stated) yielded an Activity of 36%. For CCC(C)C(NC(=O)OCc1ccccc1)P(=O)(O)CC(CCC(=O)O)C(=O)O (configuration not stated), the Activity was 83%. CC(NC(=O)/C=C/c1ccc2c(c1)OCO2)P(=O)(O)CCC(=O)O (configuration not stated) showed an Activity of 91%. For CC(NS(=O)(=O)Cc1ccccc1[N+](=O)[O-])P(=O)(O)CC(CCC(=O)O)C(=O)O (configuration not stated), the Activity was 30%. Compound CC(NS(=O)(=O)c1ccc2ccccc2c1)P(=O)(O)CC(CCC(=O)O)C(=O)O (configuration not stated) has an Activity of 55%. Work on CC(NS(=O)(=O)Cc1ccc(F)cc1Cl)P(=O)(O)CC(CCC(=O)O)C(=O)O (configuration not stated) yielded an Activity of 37%. With CC(NS(=O)(=O)Cc1cccc(C(F)(F)F)c1)P(=O)(O)CC(CCC(=O)O)C(=O)O (configuration not stated) the Activity was 49%. CC(NC(=O)[C@H](C)NS(=O)(=O)Cc1ccc([N+](=O)[O-])cc1)P(=O)(O)CCC(=O)O (some centres not stated) showed an Activity of 100%. Work on CC(NC(=O)/C=C/c1ccccc1)P(=O)(O)CC(CCC(=O)O)C(=O)O (configuration not stated) yielded an Activity of 28%. With CC(NS(=O)(=O)Cc1ccc([N+](=O)[O-])cc1)P(=O)(O)CC(CCC(=O)O)C(=O)O (configuration not stated) the Activity was 47%. Compound CC(NS(=O)(=O)Cc1ccc(C(F)(F)F)cc1)P(=O)(O)CC(CCC(=O)O)C(=O)O (configuration not stated) has an Activity of 50%. With CC(NC(=O)[C@@H](C)NC(=O)Cc1ccc2c(c1)OCO2)P(=O)(O)CC(CCC(=O)O)C(=O)O (some centres not stated) the Activity was 44%. For CC(NC(=O)[C@@H](C)NS(=O)(=O)Cc1cccc([N+](=O)[O-])c1)P(=O)(O)CC(CCC(=O)O)C(=O)O (some centres not stated), the Activity was 19%. With CC(NC(=O)/C=C/c1cccc(O)c1)P(=O)(O)CC(CCC(=O)O)C(=O)O (configuration not stated) the Activity was 23%. Compound CC(C)C(NC(=O)OCc1ccccc1)P(=O)(O)CC(CCC(=O)O)C(=O)O (configuration not stated) has an Activity of 66%. CC(NS(=O)(=O)Cc1ccccc1)P(=O)(O)CC(CCC(=O)O)C(=O)O (configuration not stated) gave an Activity of 40%. With CC(NS(=O)(=O)c1cccc([N+](=O)[O-])c1)P(=O)(O)CC(CCC(=O)O)C(=O)O (configuration not stated) the Activity was 52%.

These compounds were tested against T2, UDP-N-acetylmuramoylalanine--D-glutamate ligase (Escherichia coli K-12, UniProt P14900) (assay: Inhibitory activity against MurD from Escherichia coli).
T2 sequence (P14900 whole entry): T1 sequence (whole entry)
In the case of CC(NC(=O)[C@@H](C)NS(=O)(=O)Cc1ccc([N+](=O)[O-])cc1)P(=O)(O)CC(CCC(=O)O)C(=O)O (some centres not stated), the IC50 is reported as 78 µM. With CC(NC(=O)/C=C/c1ccccc1)P(=O)(O)CC(CCC(=O)O)C(=O)O (configuration not stated) the IC50 was 432 µM. With CC(NC(=O)/C=C/c1ccc2c(c1)OCO2)P(=O)(O)CC(CCC(=O)O)C(=O)O (configuration not stated) the IC50 was 95 µM.

What follows are compounds tested against T3, UDP-N-acetylmuramoylalanine--D-glutamate ligase (Streptococcus pneumoniae serotype 4 (strain ATCC BAA-334 / TIGR4), UniProt Q97RU8) (assay: Inhibitory activity against MurD from Streptococcus pneumoniae).
T3 sequence (Q97RU8 whole entry): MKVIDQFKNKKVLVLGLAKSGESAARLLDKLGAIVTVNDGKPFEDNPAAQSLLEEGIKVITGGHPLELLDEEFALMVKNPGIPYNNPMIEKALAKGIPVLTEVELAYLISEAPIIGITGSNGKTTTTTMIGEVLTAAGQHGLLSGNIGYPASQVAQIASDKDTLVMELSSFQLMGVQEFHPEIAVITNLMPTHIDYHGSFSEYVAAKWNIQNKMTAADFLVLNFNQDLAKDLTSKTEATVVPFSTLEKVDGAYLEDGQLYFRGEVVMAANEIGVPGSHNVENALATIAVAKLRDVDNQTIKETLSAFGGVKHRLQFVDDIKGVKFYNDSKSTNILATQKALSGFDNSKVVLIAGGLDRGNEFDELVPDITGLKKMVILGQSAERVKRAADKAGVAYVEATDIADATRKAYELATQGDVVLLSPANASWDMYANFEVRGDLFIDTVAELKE
Compound CC(NC(=O)OCc1ccccc1)P(=O)(O)CC(CCC(=O)O)C(=O)O (configuration not stated) has an IC50 of 100 µM.
